The source of these data is patent US5852005A, “Tetracyclic triterpenes” (Novartis AG, priority 1994, dated 1998).

Converted amounts (≈) assume the structure as drawn. Read-outs that look alike come from different tables or passages of the source.

In experiment [1] the test system is Jurkat cells. The experiment can be described thus: Cytotoxic and cytostatic activity using transformed human T-cell line (Jurkat). Type of experiment: cell-based. The conditions noted are these: Table 5. The procedure: 2. Cytotoxic and cytostatic activity using a transformed human T-cell line (Jurkat)
5×10^4 Jurkat cells are grown in a final volume of 0.2 ml for 72 hours after which the cell numbers are enumerated by use of an enzymatic assay using p-nitrophenyl-N-acetyl-β-D-glucosamindle as substrate. Test compounds are added at varying concentration at the start of culture and cytotoxicity compared with untreated controls.

The test system of experiment [2] is Spleen cells (proliferative response of lymphocytes to allogenic stimulation). Briefly: Two-way MLR (Murine Mixed Lymphocyte Reaction). The experiment is classed as cell-based, mouse (Balb/c, CBA). The conditions noted are these: Table 5. As to the method: 1. Proliferative Response Of Lymphocytes to Allogenic Stimulation
Two-way MLR (Murine Mixed Lymphocyte Reaction)
Spleen cells (0.5×106) from Balb/c mice (female, 8-10 weeks) are co-incubated for 5 .sctn.days with 0.5×10^6 spleen cells from CBA mice (female, 8-10 weeks). The allogenic cells induce a proliferative response in the responder spleen cell population which is measured by labelled precursor incorporation into the DNA. Test compounds are added at the start of incubation at varying concentrations and proliferative response compared with untreated controls.
(§1) Fractions are dissolved in ethanol and tested in the Mishell-Dutton assay (primary humoral immune-response to SRBC in vitro, MD) a mixed lymphocyte reaction (MLR) and on the P-815 mastocytoma cell line for cytotoxicity.

For experiment [3], the system named is P-815 mastocytoma cells. The experiment can be described thus: Cytotoxic and cytostatic activity in vitro using the P-815 mastocytoma cell line. The experiment is classed as cell-based. Particulars: Table 5. The procedure:
as §1

Experiment [4] has as its system GvH reaction (popliteal lymph node weight). Briefly: Localised Graft-versus-Host (GvH) Reaction in the rat. Type of experiment: in vivo. The conditions noted are these: up to about 100× more active than corresponding 17β-epimers. As to the method:
4. Localised Graft-versus-Host (GvH) Reaction in the rat
Spleen cells (1×10^7) from 6 week old female Wistar/Furth (WE) rats are injected subcutaneously on day 0 into the left hind-paw of female (F344×WF)F1 rats weighing about 100 g. Animals are treated for 4 consecutive days and the popliteal lymph nodes are removed and weighed on day 7. The difference in weight between the two lymph nodes is taken as the parameter for evaluating the reaction. Test compounds are administered daily for 4 days at varying dosage p.o. and inhibition compared with untreated controls. Dammara compounds are active (inhibit GvH reaction) in this test model at doses of the order of from 10 μg to 10 mg/kg/day p.o..

Experiment [5] has as its system DTH reaction (footpad swelling). Briefly: DTH (delayed-type hypersensitivity) induced by SRBC-TH cells. The experiment is classed as in vivo, mouse (C57 BL/6). Particulars: Mus musculus, po, 24 h, read-out: TEST 9 (DTH) ED50. As to the method:
50 μl of the SRBC cell suspension (diluted 1:1 v/v with PBS) is injected s.c. into the left hind footpad (to measure non specific increase in footpad swelling due to the injection procedure). Right and left hind footpad thickness is measured 24 hours later.

In experiment [6] the test system is systemic lupus erythematosus (disease onset). The experiment can be described thus: Systemic lupus erythematosus (SLE) in the mouse (NZB/NZW). The experiment is classed as in vivo, mouse (NZB/NZW F1). Particulars: po, read-out: TEST 10 (SLE) ED100. As to the method: 10. Systemic lupus erythematosus (SLE) in the mouse (NZB/NZW)
Female New Zealand black/white (NZB/NZW) F1 mice spontaneously develop characteristics that resemble systemic lupus erythematosus. […] Treatment starts at 24 weeks of age when animals show proteinurea. Compounds are administered p.o. 3 times a week for a total of 12 weeks. Status is determined every second week and animals are sent for histological evaluation at termination of the experiment Ten mice are used per group.

In the case of `COc1cc([C@@H]2c3cc4c(cc3C[C@H]3COC(=O)[C@@H]32)OCO4)cc(OC)c1OC` [Silicicolin, reference compound], in experiment [1], the “IC50 Jurkat” value was 0.0025 µg/mL (≈ 6.27 nM). Also, in experiment [2], the “IC50 MLR” value was 0.002 µg/mL (≈ 5.02 nM). The “IC50 P-815” value in experiment [3] is 0.004 µg/mL (≈ 10 nM).
For the compound `C=C(C/C=C/C(C)(C)O)[C@@H]1CC[C@]2(C)[C@@H]1CC[C@@H]1[C@@]3(C)CC[C@H](O)C(C)(C)[C@@H]3CC[C@]12C` [compound of formula IC, (17α)-23-(E)-dammara-20,23-diene-3β,25-diol], the IC50 in experiment [1] (Homo sapiens, Jurkat) was over 5 µg/mL; in experiment [2] (Mus musculus, Lymphocyte) it was 0.0105 µg/mL; in experiment [3] (Mus musculus, P815), over 5 µg/mL. Besides, the “IC50 MLR” value in experiment [2] stood at 0.011 µg/mL. In addition, the “activity relative to corresponding 17β-epimers” value in experiment [4] is “up to 100 ×”. Further, in experiment [5] (one trial run), the ED50 stood at 0.004 mg/kg. For the same compound, the ED100 in experiment [6] (one trial run) worked out at 0.01 mg/kg.
`C=C(C/C=C/C(C)(C)O)[C@H]1CC[C@]2(C)[C@@H]1CC[C@@H]1[C@@]3(C)CC[C@H](O)C(C)(C)[C@@H]3CC[C@]12C` [β-EPIMER OF IC, (17β)-23-(E)-dammara-20,23-dien-3β,25-diol]: the ED50 in experiment [5] is 10 mg/kg. Also, the ED100 in experiment [6] amounted to 10 mg/kg.
